Source: patent publication US9505740B2, “Cyclic amine derivative and pharmaceutical use thereof” (Toray Industries, Inc., priority 2013, dated 2016)
Structures can show the parent of a compound that is named as a salt.

How the values were obtained:
[1] = system: mouse partial sciatic nerve ligation model; assay: Mouse partial sciatic nerve ligation model (Seltzer model), von Frey test; format: in vivo; conditions: oral administration; Example 8 10 mg/kg (Day 7), Example 38 0.1 to 10 mg/kg (Day 8), pregabalin 10 mg/kg; 1, 2 and 3 hours after administration; vs partial sciatic nerve ligation+distilled water, p<0.05
Source text: Using a partial sciatic nerve ligation model (Seltzer model) in mice by which neuropathic pain can be evaluated, the analgesic action of a cyclic amine derivative (I) or a prodrug thereof or a pharmacologically acceptable salt thereof was investigated.
As the cyclic amine derivative (I) or a pharmacologically acceptable salt thereof, the compounds of Example 2, 4, 6, 8, 10, 12, 13, 15, 18, 22, 25, 27, 29, 31, 33, 66, 68 or 70 was used for evaluation. As the prodrug of the cyclic amine derivative (I) or a pharmacologically acceptable salt thereof, the compound of Example 38 was used for evaluation. The compound of Example 38 is a hydrochloride of a prodrug obtained by esterifying the carboxyl group of the compound of Example 39 with an ethyl group.
The mouse partial sciatic nerve ligation model was prepared in accordance with the method of Seltzer et al. (Malmberg et al., Pain, vol. 76, p. 215-222, 1998). • Slc: ICR mice (5 weeks old, male; from Japan SLC, Inc.) or Crl: CD1 (ICR) mice (5 weeks old, male; from CHARLES RIVER LABORATORIES JAPAN, INC.) were anesthetized with sodium pentobarbital (70 mg/kg, intraperitoneal administration). The sciatic nerve at the femoral region of the right hind paw of each mouse was exposed and triply ligated tightly with silk suture of 8-0 (from NATSUME […]., LTD.) under a stereomicroscope so that only half thickness of the nerve was trapped in the ligature. A group of mice thus treated was designated as a partial sciatic nerve ligation group. A group of mice whose sciatic nerve was just exposed and not ligated was designated as a sham surgery group.
Evaluation of neuropathic pain (hereinafter referred to as von Frey test) was performed as follows. Mice were conditioned for at least two hours in an acrylic cage for measurement (from NATSUME […]. LTD.) placed on a wire net. […]

[2] = system: fibromyalgia syndrome model rats; assay: Fibromyalgia syndrome model in rats (acidic saline), allodynia by von Frey filament; format: in vivo, rat; conditions: vs acidic saline-vehicle group
Source text: Using a fibromyalgia syndrome model in rats by which fibromyalgia syndrome can be evaluated, the analgesic action of a cyclic amine derivative (I) or a prodrug thereof or a pharmacologically acceptable salt thereof was investigated.
As the cyclic amine derivative (I) or a pharmacologically acceptable salt thereof, the compound of Example 13 was used for evaluation. As the prodrug of a cyclic amine derivative (I) or a pharmacologically acceptable salt thereof, the compound of Example 38 was used for evaluation. The compound of Example 38 is a hydrochloride of a prodrug obtained by esterifying the carboxyl group of the compound of Example 39 with an ethyl group.
To prepare a fibromyalgia syndrome model rat (Sluka et al., Journal of Pharmacology and Experimental Therapeutics, vol. 302, p. 1146-50, 2002; Nagakura et al., Pain, vol. 146, p. 26-33, 2009; Sluka et al., Pain, vol. 146, p. 3-4, 2009), which is generally employed widely in basic research for fibromyalgia syndrome, acidic saline (100 μL) adjusted to pH4.0 was intramuscularly injected to the gastrocnemius muscle of the right hind paw of Crl: CD(SD) rat (6 to 7 weeks old, male; from CHARLES RIVER LABORATORIES JAPAN, INC.) under continuous inhalation anesthesia with isoflurane, twice (once in each day of Day 1 and Day 6, wherein Day 1 was the date on which the acidic saline was initially administrated). The rats thus prepared were raised in a breeding room controlled at an indoor temperature of 21 to 25° C. and an indoor humidity of 40 to 70% under the conditions of voluntary intake of food and water. In the same manner, rats to which physiological saline in place of acidic saline was intramuscularly injected were raised. The rats thus raised and not afflicted with fibromyalgia syndrome (“physiological saline-vehicle” group in FIGS. 23 and 24) were also used in the experiment.
Day 7 after the initial administration of acidic saline, allodynia in each rat was measured. […] Note that, measurement of allodynia was performed by use of a von Frey filament (from North Coast Medical) in accordance with the method described in a known literature (Chaplan et al., Journal of Neuroscience Methods, vol. 53, p. 55-63, 1994). […]
The compound of Example 13 (3 and 10 mg/kg) was dissolved in physiological saline and then administered (intravenous administration) to fibromyalgia syndrome model rats through the tail vein (“acidic saline—the compound of Example 13” in FIG. 23). […] In thirty minutes after the intravenous administration, allodynia in individual rats was measured to evaluate an analgesic action. […]

[3] = system: mouse partial sciatic nerve ligation model; assay: Mouse partial sciatic nerve ligation model (Seltzer model), von Frey test; format: in vivo; conditions: intravenous administration (tail vein), Day 7; Examples 2, 4: 0.1 to 10 mg/kg; 13: 0.01 to 1 mg/kg; 18, 22: 0.1 and 1 mg/kg; 25, 27, 29, 31, 33, 66, 68, 70: 0.1 mg/kg; pregabalin 1 or 3 mg/kg; vs physiological saline group
[4] = oral administration, 10 mg/kg, one hour and three hours after administration, p<0.05

Compound	analgesic action, total score in the von Frey test [1]	allodynia, 50% response threshold (mean value of the right hind paw and the left hind paw) ([2]; intravenous administration, Example 13 3 and 10 mg/kg, pregabalin 10 mg/kg, 30 minutes after administration)	allodynia, 50% response threshold (mean value of the right hind paw and the left hind paw) [2, 4]	analgesic action, total score in the von Frey test [3]
CC(C)C[C@H](CN)CC(=O)O [pregabalin, reference compound]	statistically significant analgesic action	statistically significantly improved	statistically significantly improved	statistically significant analgesic action
CCOC(=O)Cn1ccnc1CCC(=O)N1CCC(N(C)C)CC1 [Example 38, ethyl 2-(2-(3-(4-(dimethylamino)piperidin-1-yl)-3-oxopropyl)-1H-imidazol-1-yl)acetate hydrochloride]	statistically significant analgesic action		statistically significantly improved	
Cn1ccnc1CCC(=O)N1CCC(N)CC1 [Example 8, 1-(4-aminopiperidin-1-yl)-3-(1-methyl-1H-imidazol-2-yl)propan-1-one hydrochloride]	statistically significant analgesic action			
